This note sets out measurements from paper PMC12250084 (International Journal of Molecular Sciences, 2025).

In general, Kd refers to a measure of binding affinity in units of concentration.

One test concerns the target S protein of HCoV-OC43 (Human coronavirus OC43, UniProt P36334). Briefly: SPR, Reichert4, CM5 chip, protein immobilised. Type of test: binding. On the technique in general: In SPR one partner is held on a chip, and binding of the other changes the refractive index at the surface.
The next test has as its target S protein of HCoV-229E (Human coronavirus 229E, UniProt P15423). Briefly: SPR, Reichert4, CM5 chip, protein immobilised. Type of test: binding.

S protein of HCoV-229E, sequence (P15423 16-1173): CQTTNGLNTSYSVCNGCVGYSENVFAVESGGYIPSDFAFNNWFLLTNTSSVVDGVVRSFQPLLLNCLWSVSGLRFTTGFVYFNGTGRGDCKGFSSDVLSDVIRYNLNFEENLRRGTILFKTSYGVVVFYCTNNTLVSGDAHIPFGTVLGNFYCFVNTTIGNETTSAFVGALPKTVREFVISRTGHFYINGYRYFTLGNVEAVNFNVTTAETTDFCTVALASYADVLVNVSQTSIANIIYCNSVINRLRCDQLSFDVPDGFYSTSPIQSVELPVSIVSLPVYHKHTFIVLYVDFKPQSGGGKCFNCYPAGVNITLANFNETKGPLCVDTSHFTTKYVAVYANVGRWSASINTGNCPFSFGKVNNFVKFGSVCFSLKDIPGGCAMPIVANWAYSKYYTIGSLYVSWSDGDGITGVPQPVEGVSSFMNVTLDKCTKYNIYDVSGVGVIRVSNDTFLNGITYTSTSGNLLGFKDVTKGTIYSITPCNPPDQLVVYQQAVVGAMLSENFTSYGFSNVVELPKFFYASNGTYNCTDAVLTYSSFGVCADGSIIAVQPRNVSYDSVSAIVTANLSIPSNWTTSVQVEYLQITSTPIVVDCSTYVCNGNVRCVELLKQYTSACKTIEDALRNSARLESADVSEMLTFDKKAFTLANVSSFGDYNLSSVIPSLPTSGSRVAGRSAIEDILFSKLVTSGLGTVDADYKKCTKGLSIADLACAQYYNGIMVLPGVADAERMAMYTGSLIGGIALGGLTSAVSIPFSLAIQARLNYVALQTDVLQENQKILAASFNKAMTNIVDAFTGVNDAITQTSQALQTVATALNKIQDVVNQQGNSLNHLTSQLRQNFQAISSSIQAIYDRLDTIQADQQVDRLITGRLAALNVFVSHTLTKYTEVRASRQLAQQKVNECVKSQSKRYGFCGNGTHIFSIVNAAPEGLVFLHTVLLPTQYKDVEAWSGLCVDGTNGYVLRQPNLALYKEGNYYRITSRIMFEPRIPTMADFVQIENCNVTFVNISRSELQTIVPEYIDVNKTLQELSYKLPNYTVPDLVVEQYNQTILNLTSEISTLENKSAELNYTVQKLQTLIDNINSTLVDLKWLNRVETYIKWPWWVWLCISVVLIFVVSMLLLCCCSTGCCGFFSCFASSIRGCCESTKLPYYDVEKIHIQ
S protein of HCoV-OC43, sequence (P36334 14-1353): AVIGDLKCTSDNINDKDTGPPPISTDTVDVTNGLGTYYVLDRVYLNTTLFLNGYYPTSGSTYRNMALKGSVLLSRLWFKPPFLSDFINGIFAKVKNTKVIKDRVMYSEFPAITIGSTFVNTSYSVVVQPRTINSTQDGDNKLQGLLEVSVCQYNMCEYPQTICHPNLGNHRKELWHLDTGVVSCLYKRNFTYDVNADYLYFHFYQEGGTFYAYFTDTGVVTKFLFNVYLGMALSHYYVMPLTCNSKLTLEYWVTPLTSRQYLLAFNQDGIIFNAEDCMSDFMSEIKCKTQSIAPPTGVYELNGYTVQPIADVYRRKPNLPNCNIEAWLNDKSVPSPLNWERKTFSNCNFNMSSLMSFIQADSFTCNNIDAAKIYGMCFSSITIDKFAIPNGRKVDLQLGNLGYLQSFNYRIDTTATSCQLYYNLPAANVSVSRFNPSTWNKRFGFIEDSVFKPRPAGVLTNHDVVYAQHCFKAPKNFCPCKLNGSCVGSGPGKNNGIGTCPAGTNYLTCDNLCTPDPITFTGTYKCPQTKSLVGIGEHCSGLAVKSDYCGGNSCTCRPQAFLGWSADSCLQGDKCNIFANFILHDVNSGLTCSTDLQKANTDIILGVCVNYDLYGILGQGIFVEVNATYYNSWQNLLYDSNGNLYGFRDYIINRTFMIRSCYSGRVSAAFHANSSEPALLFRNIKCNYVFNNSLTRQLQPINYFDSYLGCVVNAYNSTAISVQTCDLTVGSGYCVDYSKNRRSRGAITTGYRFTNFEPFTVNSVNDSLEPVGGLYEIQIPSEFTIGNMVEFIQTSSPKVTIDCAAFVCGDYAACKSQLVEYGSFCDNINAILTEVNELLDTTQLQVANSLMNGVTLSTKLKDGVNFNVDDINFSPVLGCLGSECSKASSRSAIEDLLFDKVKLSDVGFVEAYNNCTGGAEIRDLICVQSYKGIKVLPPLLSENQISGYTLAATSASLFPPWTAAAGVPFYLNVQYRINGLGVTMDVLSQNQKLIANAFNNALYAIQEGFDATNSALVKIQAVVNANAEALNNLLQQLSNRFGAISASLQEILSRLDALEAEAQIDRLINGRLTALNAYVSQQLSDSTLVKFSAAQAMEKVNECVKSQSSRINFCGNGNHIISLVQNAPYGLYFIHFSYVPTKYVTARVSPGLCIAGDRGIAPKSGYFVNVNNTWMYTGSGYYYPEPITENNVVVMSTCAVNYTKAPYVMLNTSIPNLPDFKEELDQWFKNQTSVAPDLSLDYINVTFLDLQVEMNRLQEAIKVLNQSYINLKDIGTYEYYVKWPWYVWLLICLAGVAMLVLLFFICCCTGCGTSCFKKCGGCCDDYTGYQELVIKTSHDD

`CC1(C)[C@@H](O[C@H]2O[C@H](C(=O)O)[C@@H](O)[C@H](O)[C@H]2O[C@@H]2O[C@H](C(=O)O)[C@@H](O)[C@H](O)[C@H]2O)CC[C@]2(C)[C@H]3C(=O)C=C4[C@@H]5C[C@@](C)(C(=O)O)CC[C@]5(C)CC[C@@]4(C)[C@]3(C)CC[C@@H]12` [Diammonium glycyrrhizinate]: the Kd on S protein of HCoV-OC43 was 5.76 µM; at S protein of HCoV-229E it was 37.9 µM.
